# Assay results reported in ChEMBL document CHEMBL1157764, “Conserved high activity binding peptides are involved in adhesion of two detergent-resistant membrane-associated merozoite proteins to red blood cells during invasion” (J Med Chem, 2010).
# Where a SMILES comes first, the peptide text is derived from it.
# Organism: Homo sapiens
# Assay: Binding affinity to RBC membrane receptor in human RBCs assessed as specific binding activity measured as ratio of specifically bound peptide/added peptide by gamma counter
row,Molecule,Activity [%]
1,CC[C@H](C)[C@H](NC(=O)[C@H](CCCCN)NC(=O)[C@@H](NC(=O)[C@H](Cc1ccc(O)cc1)NC(=O)CNC(=O)[C@H](CCC(=O)O)NC(=O)[C@H](CC(=O)O)NC(=O)[C@H](CO)NC(=O)[C@H](Cc1ccc(O)cc1)NC(=O)[C@H](CC(C)C)NC(=O)[C@H](CC(N)=O)NC(=O)[C@H](CCSC)NC(=O)[C@@H](NC(=O)[C@H](CCC(C)=O)NC(=O)[C@H](CC(N)=O)NC(=O)[C@H](CCCCN)NC(=O)[C@@H](N)Cc1c[nH]c2ccccc12)C(C)C)[C@@H](C)O)C(=O)N[C@@H](CC(N)=O)C(=O)N[C@H](C(=O)N[C@@H](CC(C)C)C(=O)O)[C@@H](C)O,> 2
2,CC[C@H](C)[C@H](NC(=O)[C@H](Cc1ccc(O)cc1)NC(=O)[C@H](CCC(=O)O)NC(=O)[C@H](CO)NC(=O)[C@@H](NC(=O)[C@H](CC(=O)O)NC(=O)[C@H](CCCCN)NC(=O)[C@H](CC(C)C)NC(=O)[C@H](CCCCN)NC(=O)[C@@H](NC(=O)[C@H](CCC(=O)O)NC(=O)[C@H](CS)NC(=O)[C@H](Cc1ccccc1)NC(=O)[C@@H]1CCCN1C(=O)[C@H](CO)NC(=O)[C@@H](N)Cc1cnc[nH]1)[C@@H](C)CC)[C@@H](C)CC)C(=O)N[C@@H](CCCNC(=N)N)C(=O)N[C@@H](CCCCN)C(=O)N[C@@H](CCCCN)C(=O)N[C@@H](CS)C(=O)O (H-HSPFCEIKLKDISEYIRKKC-OH),> 2
3,H-SDIFFKYNPSENIMDHQEMV-OH,> 2
4,CC[C@H](C)[C@H](NC(=O)[C@H](CCCCN)NC(=O)[C@H](CCCNC(=N)N)NC(=O)[C@@H]1CCCN1C(=O)[C@@H](NC(=O)[C@@H](NC(=O)[C@H](CCCCN)NC(=O)[C@@H](NC(=O)[C@H](CCCCN)NC(=O)[C@@H](NC(=O)[C@@H](NC(=O)[C@@H](N)Cc1ccc(O)cc1)C(C)C)[C@@H](C)CC)[C@@H](C)CC)[C@@H](C)O)C(C)C)C(=O)N[C@@H](CCC(N)=O)C(=O)N[C@@H](CS)C(=O)N[C@@H](CCC(=O)O)C(=O)N[C@@H](CC(C)C)C(=O)N[C@@H](CC(N)=O)C(=O)N[C@H](C(=O)N[C@@H](CC(N)=O)C(=O)N[C@@H](CC(=O)O)C(=O)O)[C@@H](C)O,> 2
5,CC(C)[C@H](NC(=O)[C@H](CC(=O)O)NC(=O)[C@H](CC(=O)O)NC(=O)[C@H](CC(=O)O)NC(=O)[C@H](CO)NC(=O)[C@H](CCC(=O)O)NC(=O)[C@H](CC(N)=O)NC(=O)[C@H](CC(=O)O)NC(=O)[C@H](CCC(N)=O)NC(=O)[C@H](CC(N)=O)NC(=O)[C@H](CCCCN)NC(=O)[C@H](CC(N)=O)NC(=O)[C@H](CCC(=O)O)NC(=O)[C@@H](N)CC(=O)O)C(=O)N[C@@H](CC(N)=O)C(=O)N[C@@H](CC(N)=O)C(=O)N[C@@H](CC(N)=O)C(=O)N[C@@H](CC(N)=O)C(=O)N[C@@H](CC(N)=O)C(=O)N[C@@H](CC(N)=O)C(=O)N[C@@H](Cc1ccc(O)cc1)C(=O)N[C@@H](CC(N)=O)C(=O)N[C@@H](CC(N)=O)C(=O)N[C@@H](CC(=O)O)C(=O)N[C@@H](CC(=O)O)C(=O)O,> 2
6,H-TLDIEKIEDINLEEVKMSLLY-OH,> 2
7,CC[C@H](C)[C@H](NC(=O)[C@H](Cc1ccc(O)cc1)NC(=O)[C@H](CS)NC(=O)[C@@H]1CCCN1C(=O)[C@H](CC(=O)O)NC(=O)[C@@H](N)CCC(=O)O)C(=O)N[C@@H](CC(N)=O)C(=O)N[C@@H](CC(N)=O)C(=O)N[C@@H](CO)C(=O)N[C@@H](Cc1ccc(O)cc1)C(=O)N[C@H](C(=O)N[C@@H](CO)C(=O)N[C@H](C(=O)N[C@@H](CC(N)=O)C(=O)N[C@H](C(=O)N[C@H](C(=O)N[C@@H](CS)C(=O)N[C@@H](CC(N)=O)C(=O)N[C@@H](CCCCN)C(=O)N[C@@H](CCC(=O)O)C(=O)O)C(C)C)C(C)C)C(C)C)C(C)C (H-EDPCYINNSYVSVNVVCNKE-OH),> 2
8,CC[C@H](NC(=O)[C@H](CC(C)C)NC(=O)[C@H](CCCCN)NC(=O)[C@H](CC(N)=O)NC(=O)[C@H](CC(N)=O)NC(=O)[C@H](Cc1ccc(O)cc1)NC(=O)[C@@H](NC(=O)[C@H](Cc1ccc(O)cc1)NC(=O)[C@H](CCCCN)NC(=O)[C@H](Cc1ccc(O)cc1)NC(=O)[C@@H](NC(=O)[C@H](Cc1ccc(O)cc1)NC(=O)[C@@H](NC(=O)[C@H](Cc1ccc(O)cc1)NC(=O)[C@@H](NC(=O)[C@H](CCCCN)NC(=O)[C@H](CC(N)=O)NC(=O)[C@@H](NC(=O)[C@@H](N)[C@@H](C)O)C(C)C)[C@@H](C)CC)[C@@H](C)O)[C@@H](C)O)[C@@H](C)CC)C(=O)N[C@@H](C)C(=O)O,> 2
9,CC[C@H](C)[C@H](NC(=O)[C@H](Cc1ccccc1)NC(=O)[C@H](CC(C)C)NC(=O)[C@H](CC(C)C)NC(=O)[C@H](CC(C)C)NC(=O)[C@H](CC(C)C)NC(=O)[C@@H](NC(=O)[C@@H](NC(=O)[C@H](CC(C)C)NC(=O)[C@H](CC(C)C)NC(=O)[C@H](C)NC(=O)[C@H](CC(N)=O)NC(=O)[C@H](CO)NC(=O)[C@H](CCSC)NC(=O)[C@H](C)NC(=O)[C@H](Cc1ccccc1)NC(=O)[C@@H](N)Cc1ccccc1)C(C)C)[C@@H](C)CC)C(=O)N[C@@H](CCC(=O)O)C(=O)N[C@@H](Cc1ccccc1)C(=O)N[C@@H](CC(C)C)C(=O)N[C@@H](Cc1ccc(O)cc1)C(=O)O,> 2
10,CC[C@H](C)[C@H](NC(=O)[C@H](CCCNC(=N)N)NC(=O)[C@H](CC(C)C)NC(=O)[C@H](CC(=O)O)NC(=O)[C@H](CCC(=O)O)NC(=O)[C@@H](NC(=O)[C@@H](NC(=O)[C@H](CO)NC(=O)CNC(=O)[C@H](CCCCN)NC(=O)[C@@H](N)CCCCN)[C@@H](C)CC)[C@@H](C)O)C(=O)N[C@H](C(=O)N[C@@H](CC(N)=O)C(=O)N[C@@H](CC(=O)O)C(=O)N[C@@H](CC(C)C)C(=O)N[C@@H](CCC(=O)O)C(=O)N1CCC[C@H]1C(=O)N[C@@H](CC(C)C)C(=O)N[C@@H](CC(=O)O)C(=O)N[C@@H](Cc1ccc(O)cc1)C(=O)O)C(C)C,> 2
11,H-GTAMESLLYLNNNNVKKLID-OH,> 2
12,H-FEVRLPKDIKVTENCFRYSF-OH,> 2
13,H-QEKLNTTDPSKAYIYGANII-OH,> 2
14,H-VHFMAGGQKYKYEGIDLTDS-OH,> 2
15,H-DGLNCFDNVYIKNKTLVKIE-OH,> 2
16,H-ILYLEKNNLFNTQASCIKSY-OH,> 2

# Next, values leading:
row,Activity [%],Molecule
1,> 2,CC(C)C[C@H](NC(=O)[C@@H](NC(=O)[C@@H](N)CC(=O)O)C(C)C)C(=O)N[C@@H](CO)C(=O)N[C@@H](CCC(=O)O)C(=O)N[C@@H](CO)C(=O)N[C@@H](CC(N)=O)C(=O)N[C@@H](CC(N)=O)C(=O)N[C@@H](CCC(=O)O)C(=O)N[C@@H](CC(N)=O)C(=O)N[C@@H](CCCCN)C(=O)N[C@@H](CCC(=O)O)C(=O)N[C@H](C(=O)N[C@@H](CO)C(=O)N[C@@H](CC(=O)O)C(=O)N[C@@H](CC(=O)O)C(=O)N[C@@H](C)C(=O)N[C@H](C(=O)N[C@@H](Cc1cnc[nH]1)C(=O)N[C@@H](Cc1ccc(O)cc1)C(=O)O)[C@@H](C)O)[C@@H](C)O
2,< 2,CC[C@H](C)[C@H](N)C(=O)N[C@@H](CCCCN)C(=O)N[C@@H](Cc1ccc(O)cc1)C(=O)N[C@H](C(=O)N[C@@H](CCC(=O)O)C(=O)N[C@@H](Cc1ccccc1)C(=O)N[C@@H](Cc1ccccc1)C(=O)N[C@@H](CCC(=O)O)C(=O)N[C@@H](CO)C(=O)N[C@@H](CC(N)=O)C(=O)N[C@@H](Cc1ccc(O)cc1)C(=O)N[C@@H](CC(N)=O)C(=O)N[C@@H](CCCNC(=N)N)C(=O)N[C@@H](CC(C)C)C(=O)N[C@@H](CCCCN)C(=O)N[C@@H](CCCNC(=N)N)C(=O)N[C@@H](CO)C(=O)N[C@@H](Cc1ccccc1)C(=O)N[C@@H](CCC(N)=O)C(=O)N[C@@H](CCCCN)C(=O)O)[C@@H](C)O
3,> 2,H-NNDDQDEQGNDGDVTSSMNKY-OH
4,> 2,CC[C@H](C)[C@H](NC(=O)[C@@H](N)CCC(=O)O)C(=O)N[C@@H](CO)C(=O)N[C@@H](CCC(=O)O)C(=O)N[C@@H](CS)C(=O)N[C@H](C(=O)N[C@@H](CCC(=O)O)C(=O)N[C@@H](CO)C(=O)N[C@@H](CCC(=O)O)C(=O)N[C@@H](CCC(N)=O)C(=O)N[C@@H](CC(N)=O)C(=O)N[C@@H](CCC(=O)O)C(=O)N[C@H](C(=O)N[C@@H](CCCCN)C(=O)N[C@H](C(=O)N[C@@H](CO)C(=O)N[C@H](C(=O)N[C@H](C(=O)N[C@@H](CS)C(=O)N[C@@H](CC(C)C)C(=O)N[C@@H](Cc1ccc(O)cc1)C(=O)O)[C@@H](C)O)[C@@H](C)O)[C@@H](C)O)C(C)C)C(C)C (H-EISECVESEQNEVKTSTTCLY-OH)
5,> 2,H-SPNYELSLNSLSDSQNVDIF-OH
6,> 2,CC[C@H](C)[C@H](NC(=O)[C@H](C)NC(=O)[C@@H](NC(=O)[C@H](Cc1ccccc1)NC(=O)[C@@H](NC(=O)[C@@H](NC(=O)[C@H](CC(N)=O)NC(=O)[C@@H](C)N)[C@@H](C)CC)[C@@H](C)CC)[C@@H](C)CC)C(=O)N[C@H](C(=O)N[C@@H](CO)C(=O)N[C@H](C(=O)N[C@H](C(=O)N[C@@H](CO)C(=O)N[C@@H](CC(C)C)C(=O)N[C@@H](CO)C(=O)N[C@H](C(=O)N[C@@H](CO)C(=O)N[C@@H](CO)C(=O)N[C@@H](Cc1ccccc1)C(=O)N[C@H](C(=O)N[C@@H](Cc1ccc(O)cc1)C(=O)O)[C@@H](C)CC)[C@@H](C)CC)[C@@H](C)CC)[C@@H](C)CC)[C@@H](C)CC
7,> 2,H-LNEDLVLLYNDFPFDNGMIS-OH
8,> 2,CC[C@H](C)[C@H](NC(=O)[C@H](CC(C)C)NC(=O)[C@@H](N)C(C)C)C(=O)N[C@@H](C)C(=O)N[C@@H](CCC(=O)O)C(=O)NCC(=O)N[C@@H](Cc1ccc(O)cc1)C(=O)N[C@@H](CCCCN)C(=O)N[C@@H](CCCNC(=N)N)C(=O)N[C@H](C(=O)N[C@@H](CC(N)=O)C(=O)N[C@@H](CCC(=O)O)C(=O)N[C@@H](CCCCN)C(=O)N[C@@H](CCC(=O)O)C(=O)N[C@@H](CC(=O)O)C(=O)N[C@H](C(=O)N[C@@H](CC(=O)O)C(=O)N[C@@H](CCCNC(=N)N)C(=O)N[C@@H](CCCNC(=N)N)C(=O)O)[C@@H](C)CC)[C@@H](C)CC
9,> 2,H-QNNEQEQPKQDDQLLNNNNDY-OH
10,> 2,H-SKINKELAHRTALFNKLADNY-OH
11,> 2,H-NNEKVVPLSNEPQEIIQPPIY-OH
